Data on two molecules can be found in patent publication US11857578B2, “Extract and dermatological composition comprising same, for treating sensitive skin” (PIERRE FABRE DERMO-COSMETIQUE, priority 2018, dated 2024).

Holding throughout (format): cell-based
One test concerns HBD2. Kind of test: RT-qPCR gene expression of innate immunity marker HBD2 in normal human epidermal keratinocytes. To be noted: 1.5 mM, 48 h incubation, three donors. The procedure: (§1) The purpose of this study is to evaluate the effects of the bacterial extract according to the invention on the gene expression of normal human epidermal keratinocytes by an RT-PCR technique on two genes related to innate immunity.
(§2) The study is carried out on normal human epidermal keratinocytes from three donors. These cells are used at their third passage. These cells are cultured in a standard medium supplemented with epidermal growth factor (EGF), pituitary extract (PE) and gentamycin, using conventional laboratory procedures.
(§3) The bacterial extract according to the invention is tested at three concentrations: 0.4, 2 and 10 μg/ml (μg/ml protein).
(§4) At the same time, calcium chloride is tested at 1.5 mM as reference product.
(§5) The keratinocytes are seeded in 24-well plates (50,000 cells per well) and cultured for 24 hours in a culture medium. […]
(§6) The expression of markers is analyzed by the RT-qPCR method on total RNA extracted from the cells under each condition. […] The quantity and quality of RNA are evaluated by capillary electrophoresis. cDNA is synthesized by reverse transcription of total RNA in the presence of oligo(dT) and Transcriptor Reverse Transcriptase. […]
(§7) Fluorescence incorporation into amplified DNA is continuously measured during PCR cycles. […]
(§8) The parameter RQ (relative quantification) is defined as the relative expression/100. […]
Background: Quantitative PCR measures a nucleic acid by following its amplification.

For a further test, the system named is S100A7. The test can be described thus: RT-qPCR gene expression of innate immunity marker S100A7 in normal human epidermal keratinocytes. The note with it: 1.5 mM, 48 h incubation, three donors. The procedure:
as §1, §2, §3, §4, §5, §6, §7, §8

The next test relates to IL-1β. The test can be described thus: IL-1β release by human epidermal keratinocytes activated by substance P (ELISA). The procedure: (§9) The purpose of this study is to evaluate the modulatory properties of the bacterial extract according to the invention in skin inflammation. To that end, an in vitro experimental approach based on the measurement of production and release of tumor necrosis factor-alpha (TNF-α) and interleukin-1 beta (IL-1β) by human epidermal keratinocytes, activated by substance P, is proposed as an in vitro model of cutaneous neurogenic inflammation. The study is carried out on normal human epidermal keratinocytes; these cells are obtained from newborn foreskin. These cells are cultured in a serum-free medium using conventional laboratory procedures. The determination of markers of cutaneous neurogenic inflammation is carried out on these keratinocytes cultured in a medium in the absence (control condition) or in the presence of the compounds to be tested (bacterial extract according to the invention and reference product), and optionally exposed to substance P. The keratinocytes are treated 3 hours before the stress induced by substance P and during the following 24 hours. Levels of proinflammatory cytokines (TNF-α and IL-1β) are quantified 24 h after the induction of inflammatory stress by the addition of substance P (0.5 μM). […] TNF-α and IL-1β productions are measured in the incubation media and quantified by the enzyme-linked immunosorbent assay (ELISA).
(In an ELISA, binding on a coated surface is turned into a signal by an enzyme label.)

In the next test the test system is TNF-α. Kind of test: TNF-α release by human epidermal keratinocytes activated by substance P (ELISA). The procedure:
as §9

[1] abbreviates: 1 μM, keratinocytes treated 3 h before and 24 h during substance P (0.5 μM).

Turning to `[Ca+2].[Cl-].[Cl-]` [Calcium chloride, calcium chloride], the “HBD2 gene expression, Mean (multiplicative factor, RQ vs control)” value in the test on HBD2 is on record as 5.8; in the test with HBD2 (listed as calcium chloride), “strong expression”. The entries for the “S100A7 gene expression, Mean (multiplicative factor, RQ vs control)” value in the test on S100A7 and in the test with S100A7 (listed as calcium chloride) were 4.1 and “strong expression”, respectively.

For the molecule `COc1ccccc1CN[C@H]1C2CCN(CC2)[C@H]1C(c1ccccc1)c1ccccc1` [NK-1R inh, CP96345], the IL-1β mean with IL-1β (setting [1]) was 132.5 pg/mL. Further, the inhibition at 1 µM in the test on IL-1β (Homo sapiens, Keratinocyte, versus Cont SP(+), substance P 0.5 μM, 24 h, read-out: IL-1β % Inh) was 91%; in the test with TNF-α (Homo sapiens, Keratinocyte, versus Cont SP(+), substance P 0.5 μM, 24 h, read-out: TNF-α % Inh) it was 90%. For the same molecule, the TNF-α mean in the test on TNF-α (setting [1]) was 4.6 pg/mL.
